Laboratory results as given in patent publication US6136552A, “High-affinity salicylic acid-binding protein and methods of use” (Rutgers, The State University of New Jersey, priority 1997, dated 2000).
Like-named read-outs stand apart in the source and are kept apart here.

Experiments:
[1] = system: PR gene expression and enhanced disease resistance; set-up: key to Biological activity: +, active; -, inactive; conditions: cited from earlier work; for Biological activity: based on FIG. 7 and literature
SABP2 [2] = biological target: T1, SABP2 (Nicotiana tabacum, UniProt Q6RYA0); experiment: [3H]SA competition assay with unlabeled SA and SA analogues; format: binding, tobacco
T1 construct: Soluble proteins were extracted from the powdered leaves; from tissue; host or cells: tobacco leaf (cv. Xanthi nc), 50-75% ammonium sulfate fraction
T1 sequence (Q6RYA0 1-260): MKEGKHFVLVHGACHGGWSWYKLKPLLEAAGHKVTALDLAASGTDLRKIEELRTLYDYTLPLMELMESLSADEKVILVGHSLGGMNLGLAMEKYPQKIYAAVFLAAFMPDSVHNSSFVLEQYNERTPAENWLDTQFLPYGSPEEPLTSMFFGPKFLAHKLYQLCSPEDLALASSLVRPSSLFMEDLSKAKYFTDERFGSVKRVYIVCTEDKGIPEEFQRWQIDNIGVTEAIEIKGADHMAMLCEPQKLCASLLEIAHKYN
Method: (§1) [3H]SA binding and competition assays. […] Spin columns were prepared by packing Sephadex G25 gel (exclusion limit 5 kDa; Pharmacia), which was pre-equilibrated in buffer A, in a 1-mL disposable syringe and centrifuging at 1,000 g for 4 minutes at 4° C. This process was repeated until the bed volume of the spin column reached 1 mL. One additional spin with 125 μL buffer A was performed under the same centrifugation conditions. The binding mixture (125 μL) was loaded onto the spin column and immediately centrifuged. […] When no protein extract was included in the binding mixture, the background radioactivity level was 33±3 dpm/100 μL. For the boiling treatment, the extract was boiled for 5 minutes and denatured protein aggregates were removed by centrifugation at 12,000 g for 1 minute.

tobacco catalase [3] = biological target: T2, tobacco catalase (Nicotiana tabacum, UniProt P49319); experiment: Inhibition of catalase activity; format: biochemical; conditions: unpublished data
T2 construct: tobacco catalase activity in suspension cells and in crude leaf extracts; host or cells: tobacco suspension cells, crude leaf extracts, purified enzyme
T2 sequence (P49319 1-492): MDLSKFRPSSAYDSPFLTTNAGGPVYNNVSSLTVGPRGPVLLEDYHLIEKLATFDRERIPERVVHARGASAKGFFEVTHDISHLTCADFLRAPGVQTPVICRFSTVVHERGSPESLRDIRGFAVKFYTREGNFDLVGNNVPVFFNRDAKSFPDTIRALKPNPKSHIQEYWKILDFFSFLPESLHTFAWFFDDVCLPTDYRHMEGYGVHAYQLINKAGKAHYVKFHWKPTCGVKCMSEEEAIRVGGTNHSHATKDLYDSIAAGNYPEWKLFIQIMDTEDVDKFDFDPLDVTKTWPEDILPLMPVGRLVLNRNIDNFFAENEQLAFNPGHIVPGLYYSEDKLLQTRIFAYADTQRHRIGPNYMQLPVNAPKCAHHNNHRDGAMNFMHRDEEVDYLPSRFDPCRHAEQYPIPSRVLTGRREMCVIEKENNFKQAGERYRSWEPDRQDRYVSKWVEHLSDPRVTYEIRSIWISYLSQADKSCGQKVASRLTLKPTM

PR-1 gene expression = experiment: Induction of PR-1 gene expression in leaf discs (northern blot); format: cell-based, tobacco; conditions: Nicotiana tabacum, foliar, 24 hours after treatment, read-out: concentration giving 15-fold induction of PR-1 gene expression
Source text: As a control, rRNA present in each lane is also shown. FIG. 7B is a graph showing quantification of the fold-induction of the PR-1 mRNA levels after SA (.cndot.) and BTH (.smallcircle.) treatment. The levels of PR-1 mRNA were normalized to the amounts of rRNA. The rRNA-normalized levels of PR-1 mRNA obtained after infiltration of leaf discs with SA or BTH were divided by the rRNA-normalized level of PR-1 mRNA obtained after infiltration with water only to determine the fold induction. The data presented are from a single experiment; two additional experiments were done. The maximum-fold induction of the PR-1 genes and the concentrations of SA and BTH required to reach approximately 50% of this value varied somewhat among the three experiments, depending on the age of the plant. In the three experiments, the concentrations of BTH needed to reach approximately 50% induction were 30- to 40-fold lower than those for SA.

tobacco catalase [4] = biological target: T2, tobacco catalase; conditions: cited from earlier work
tobacco catalase [5] = conditions: in vivo; cited from earlier work
catalase = biological target: T3, catalase (Nicotiana tabacum, UniProt P49319); conditions: cited from earlier work
T3 construct: has been identified in tobacco leaf extracts; host or cells: tobacco leaf extracts
T3 sequence (P49319 1-492): T2 sequence (P49319 1-492)

SABP2 [6] = biological target: T1, SABP2; experiment: [3H]SA binding assay (kinetics, reversibility, saturation, Scatchard plot); set-up: species or system tobacco; conditions: for time until binding is complete / approaches equilibrium: 0-4° C.
Method: as §1

APX = conditions: cited from earlier work
[7] = 50-75% fraction, 0.1 μM [3H]SA, on ice 2 hours, estimated from FIG. 6, read-out: IC50 of competition for [3H]SA binding

O=C(O)c1cc(O)ccc1O [2,5-dihydroxybenzoic acid]
Biological activity [1]: -
Biologically active / inactive (FIG. 6 legend) ([1]; in vivo): biologically inactive
IC50 (SABP2 [2]; [7]): 20 µM

O=C(O)c1c(O)cccc1O [2,6-dihydroxybenzoic acid]
Biological activity [1]: +
Biologically active / inactive (FIG. 6 legend) ([1]; in vivo): Biologically active
IC50 (SABP2 [2]; [7]): 2 µM

O=C(O)c1cccc(O)c1 [3-hydroxybenzoic acid]
Biological activity [1]: -
Biologically active / inactive (FIG. 6 legend) ([1]; in vivo): biologically inactive
IC50 (SABP2 [2]; [7]): 105 µM

O=C(O)c1ccc(O)cc1 [4-hydroxybenzoic acid]
Biological activity [1]: -
Biologically active / inactive (FIG. 6 legend) ([1]; in vivo): biologically inactive
IC50 (SABP2 [2]; [7]): > 1000 µM

O=C(O)c1cc(Cl)ccc1O [5-chloroSA, 5-chlorosalicylic acid]
Biological activity [1]: +
Biologically active / inactive (FIG. 6 legend) ([1]; in vivo): Biologically active
IC50 (SABP2 [2]; [7]): 0.3 µM

CSC(=O)c1cccc2nnsc12 [BTH, benzo(1,2,3)thiadiazole-7-carbothioic acid S-methyl ester]
catalase inhibition compared with SA (tobacco catalase [3]): more effective inhibitor of catalase than SA
Biological activity [1]: +
Biologically active / inactive (FIG. 6 legend) ([1]; in vivo): Biologically active
EC (15-fold) (PR-1 gene expression): ~3.3 µM
IC50 (SABP2 [2]): 0.1 µM

O=C(O)c1cc(Cl)nc(Cl)c1 [INA, 2,6-dichloroisonicotinic acid]
inhibition of catalase activity in crude extracts (tobacco catalase [4]; crude extracts): less effective at inhibiting catalase activity in crude extracts
inhibition of purified tobacco catalase (tobacco catalase [4]; purified enzyme): fails to inhibit purified tobacco catalase
inhibition of tobacco catalase in vivo (tobacco catalase [5]): effectively blocks tobacco catalase in vivo
Biological activity [1]: +
Biologically active / inactive (FIG. 6 legend) ([1]; in vivo): Biologically active
IC50 (SABP2 [2]): 70 µM

O=C(O)c1ccccc1O[C@@H]1O[C@H](CO)[C@@H](O)[C@H](O)[C@H]1O [SA β-glucoside]
induction of disease resistance ([1]; in vivo): not active

O=C(O)c1ccccc1O [SA, salicylic acid]
Kd (catalase; [14C]SA, tobacco leaf extracts, read-out: Kd of SA binding to catalase): 14 µM
time until binding to catalase approaches equilibrium (catalase): 90 to 120 min
SA level required for effective inhibition of catalase activity (tobacco catalase [4]): 50 to 300 µM
Biological activity [1]: +
Biologically active / inactive (FIG. 6 legend) ([1]; in vivo): Biologically active
time until binding is complete / approaches equilibrium (SABP2 [6]): 15 to 20 min
inhibition at 1000 µM (SABP2 [6]; 50-75% fraction, 1 mM SA, 0.1 μM [3H]SA, read-out: reduction of binding activity in the presence of excess unlabeled SA): 85%
remaining activity at 1000 µM (SABP2 [6]; 100% = binding after 160 minutes of incubation, read-out: [3H]SA binding remaining after addition of 1 mM SA): < 10%
Kd (SABP2 [6]; Scatchard plot, 50-75% fraction): 0.09 µM
SA level required for effective inhibition of APX activity (APX): 50 to 300 µM
IC50 (SABP2 [2]): 1.5 µM

O=C(O)c1ccccc1O [[^3 H]SA]
time until binding is complete / approaches equilibrium (SABP2 [6]): approximately 20 minutes
half association time (SABP2 [6]; 50-75% fraction): 5 min
